The subject of data set [1] is MCF7. Put plainly: Anticancer activity against human MCF7 cells. It is filed as functional, cell-based.
The nature of data set [2]: Cytotoxicity against CHO cells. It counts as toxicity, cell-based, Cricetulus griseus. Conditions: Chinese hamster.
In data set [3] the test system is TK-10. The data set can be described thus: Anticancer activity against human TK-10 cells. It is filed as functional, cell-based.
In data set [4] the test system is TK-10. The data set can be described thus: Anticancer activity against human TK-10 cells assessed as total growth inhibition. It counts as functional.
Data set [5] concerns UACC-62. Put plainly: Anticancer activity against human UACC-62 cells assessed as total growth inhibition. It counts as functional.
Data set [6] has as its system UACC-62. Put plainly: Anticancer activity against human UACC-62 cells. It counts as functional, cell-based.
For data set [7], the system named is MCF7. Put plainly: Anticancer activity against human MCF7 cells assessed as total growth inhibition. It counts as functional.
Data set [8] in a line: Blood clearance in rat at 100 mg/kg, po. It counts as ADME, organism-based.
In data set [9] the test system is PC-3. Put plainly: Antiproliferative activity against human PC-3 cells. It is filed as functional, cell-based.
A short description of data set [10]: Cytotoxicity against human HEK293 cells. It is filed as toxicity, cell-based.
Data set [11] concerns MDA-MB-231. The data set can be described thus: Antiproliferative activity against human MDA-MB-231 cells. It is filed as functional, cell-based. Conditions: Homo sapiens, MDA-MB-231.
Data set [12] relates to K562. The data set can be described thus: Antiproliferative activity against human K562 cells. It counts as functional, cell-based.
The subject of data set [13] is COLO 205. Put plainly: Antiproliferative activity against human COLO 205 cells. It is filed as functional, cell-based.
The subject of data set [14] is A549. The data set can be described thus: Antiproliferative activity against human A549 cells. It is filed as functional, cell-based.
Data set [15] deals with HEK293. The data set can be described thus: Antiproliferative activity against human HEK293 cells. It counts as functional, cell-based.
The subject of data set [16] is A-431. The data set can be described thus: Antiproliferative activity against human A-431 cells. It counts as functional, cell-based.
Data set [17] has as its system Colon cell line. Put plainly: Antiproliferative activity against human Colon cell line. It is filed as functional.
Data set [18] concerns Leukemia cell. Put plainly: Antiproliferative activity against human Leukemia cell. It is filed as functional.
For data set [19], the system named is Melanoma cell line. Put plainly: Antiproliferative activity against human Melanoma cell. It is filed as functional.
Data set [20] relates to Plasmodium falciparum. Put plainly: Antiplasmodial activity against Plasmodium falciparum K1. It is filed as functional, organism-based.
Data set [21] has as its system Plasmodium falciparum. Put plainly: Antiplasmodial activity against Plasmodium falciparum HB3. It is filed as functional, organism-based.
The test system of data set [22] is Prostatic carcinoma cell. The data set can be described thus: Antiproliferative activity against human Prostatic carcinoma cell. It counts as functional.
In data set [23] the test system is EL4. The data set can be described thus: Antiproliferative activity against mouse EL4 cells. It counts as functional, cell-based.
Data set [24] has as its system HT-29. Put plainly: Antiproliferative activity against human HT-29 cells. It counts as functional, cell-based.
In data set [25] the test system is HL-60. Put plainly: Antiproliferative activity against human HL-60 cells assessed as reduction in cell viability measured after 72 hrs. It is filed as functional, cell-based. To be noted: HL-60, 72 h.
Data set [26] concerns P388. Put plainly: Potency index, ratio of test compound IC50 to dihydroartemisinin IC50 for antiproliferative activity against mouse P388 cells assessed as reduction in cell viability measured after 72 hrs. It counts as functional.
Data set [27] concerns P388/ADR. Put plainly: Antiproliferative activity against mouse P388/ADR cells assessed as reduction in cell viability measured after 72 hrs. It is filed as functional, cell-based. Conditions: 72 h.
For data set [28], the system named is P388/ADR. The data set can be described thus: Potency index, ratio of test compound IC50 to dihydroartemisinin IC50 for antiproliferative activity against mouse P388/ADR cells assessed as reduction in cell viability measured after 72 hrs. It counts as functional.
Data set [29] deals with HL-60. The data set can be described thus: Potency index, ratio of test compound IC50 to dihydroartemisinin IC50 for antiproliferative activity against human HL-60 cells assessed as reduction in cell viability measured after 72 hrs. It counts as functional.
Data set [30] in a line: Antiproliferative activity against mouse P388 cells assessed as reduction in cell viability measured after 72 hrs. It counts as functional, cell-based. Conditions: 72 h.
Data set [31] concerns MCF7. Put plainly: Antiproliferative activity against doxorubicin resistant human MCF7 cells. It is filed as functional, cell-based.
In data set [32] the test system is Ca9-22. Put plainly: Cytotoxicity against human Ca9-22 cells. It counts as functional, cell-based.
Data set [33] relates to HSC-2. The data set can be described thus: Cytotoxicity against human HSC-2 cells. It counts as functional, cell-based.
The subject of data set [34] is HL-60. Put plainly: Antiproliferative activity against human HL-60 cells. It counts as functional, cell-based.
The test system of data set [35] is HepG2. The data set can be described thus: Antiproliferative activity against human HepG2 cells. It counts as functional, cell-based.
The subject of data set [36] is HCT-116. Put plainly: Antiproliferative activity against human HCT-116 cells. It counts as functional, cell-based.
The test system of data set [37] is HeLa. Put plainly: Antiproliferative activity against human HeLa cells. It is filed as functional, cell-based.
Data set [38] is described as follows: Antiproliferative activity against human 1205Lu cells. It counts as functional, cell-based.

pIC50: −log10 of the molar value. In brackets after ≈: the same amount, converted by molar mass.

These results are taken from ChEMBL document CHEMBL5244230, “Artemisinin-derived hybrids and their anticancer activity” (Eur J Med Chem, 2020).

For orientation: GI50 means the concentration that inhibits growth by half. A lower GI50 goes with greater sensitivity of the cells. The term pIC50 denotes the negative decadic logarithm of the IC50, by convention in mol/L. One may read the TGI as the concentration giving total growth inhibition. What is called CL/F is the apparent clearance, not corrected for the fraction that reaches the circulation. Usually IC50 stands for the concentration needed to halve the response being measured. The low end stands for greater potency in that assay, the high end for weaker potency in that assay.

In the case of `C[C@H]1[C@@H](OCCN(CCCNc2ccnc3cc(Cl)ccc23)CCO[C@H]2O[C@@H]3O[C@@]4(C)CC[C@H]5[C@H](C)CC[C@@H]([C@H]2C)[C@@]35OO4)O[C@@H]2O[C@@]3(C)CC[C@H]4[C@H](C)CC[C@@H]1[C@@]24OO3`, the GI50 in [1], in [3] and in data set [6] was 30 nM throughout. In addition, the pIC50 in data set [2] is 6.17. The TGI in [4], in data set [5] and in data set [7] was 2210 nM in each case. In [8], this compound registered a CL/F of 184 L/h/kg.

As for `C[C@H]1[C@@H](OCc2cn(-c3ccc(O)cc3)nn2)O[C@@H]2O[C@@]3(C)CC[C@H]4[C@H](C)CC[C@@H]1[C@@]24OO3`, the pIC50 in [9], in data set [11], in data set [12], in [13], in data set [14] and in data set [15] was 5.39 each time. The compound also gave a pIC50 in data set [16] of 5.39. The compound further registered an IC50 in [10] of more than 100 µg/mL.

On to `COP(=O)(OCC[C@H]1[C@@H](C)O[C@@H]2O[C@@]3(C)CC[C@H]4[C@H](C)CC[C@@H]1[C@@]24OO3)OCC[C@H]1O[C@@H]2O[C@@]3(C)CC[C@H]4[C@H](C)CC[C@@H]([C@H]1C)[C@@]24OO3` (stereo partly specified), for which the GI50 in [17], in [18], in data set [19] and in data set [22] was less than 10 nM each time. In addition, the pIC50 in [20] and in data set [21] was 10.05 each time.

`C[C@H]1[C@@H](CCSCC[C@H]2O[C@@H]3O[C@@]4(C)CC[C@H]5[C@H](C)CC[C@@H]([C@H]2C)[C@@]35OO4)O[C@@H]2O[C@@]3(C)CC[C@H]4[C@H](C)CC[C@@H]1[C@@]24OO3`: the pIC50 in data set [23], in data set [1] and in [24] was 7.77 each time.

As for `C[C@H]1[C@@H](CCOP(=O)(OCC[C@H]2[C@@H](C)O[C@@H]3O[C@@]4(C)CC[C@H]5[C@H](C)CC[C@@H]2[C@@]35OO4)Oc2ccccc2)O[C@@H]2O[C@@]3(C)CC[C@H]4[C@H](C)CC[C@@H]1[C@@]24OO3` (stereo partly specified), the GI50 is less than 10 nM in data set [17], 10 nM in data set [18], less than 10 nM in data set [19] and less than 10 nM in data set [22]. In addition, the pIC50 in data set [20] and in data set [21] was 10.05 throughout.

In the case of `C[C@H]1[C@@H](Oc2ccc(Cn3ccnn3)cc2)O[C@@H]2O[C@@]3(C)CC[C@H]4[C@H](C)CC[C@@H]1[C@@]24OO3`, the pIC50 in data set [25] was 7.19; in data set [27] it was 5.54; in data set [30], 7.33; in [31] it was 7.33. In addition, the “Ratio IC50” value in [26], in [28] and in data set [29] was 4.6 throughout.

With `C[C@H]1[C@@H](CCC(=O)Nc2cnc3ccccc3c2)O[C@@H]2O[C@@]3(C)CC[C@H]4[C@H](C)CC[C@@H]1[C@@]24OO3`, the pIC50 was 4.30 in data set [32] and 4.43 in data set [33].

Regarding `C[C@H]1[C@@H](NC(=O)CCC(=O)NO)O[C@@H]2O[C@@]3(C)CC[C@H]4[C@H](C)CC[C@@H]1[C@@]24OO3`, the values for the IC50 in data set [1], in [34] and in [35] were 1.28 µg/mL, 1.28 µg/mL (≈ 3.21 µM) and 1.28 µg/mL (≈ 3.21 µM), respectively.

As for `C[C@H]1[C@@H](CCC(=O)Nc2ccc(F)cc2)O[C@@H]2O[C@]3(C)CC[C@H]4[C@H](C)CC[C@@H]1[C@@]24OO3`, the pIC50 in [36], in data set [37] and in data set [38] was 4.40 throughout.
